Consider 19 molecules from PubChem BioAssay (NCI).

What all share (experiment): NCI anticancer screen, dose series, 48 h
In experiment [1] the test system is NCI-H226 lung.
Experiment [2] concerns SF-539 CNS.
Experiment [3] has as its system NCI-H460 lung.
Experiment [4] concerns MALME-3M melanoma.
For experiment [5], the system named is HCC-2998 colon.
In experiment [6] the test system is LOX IMVI melanoma.
For experiment [7], the system named is NCI-H23 lung.
Experiment [8] deals with CCRF-CEM leukemia.
Experiment [9] relates to SF-268 CNS.
Experiment [10] deals with A498 renal.

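1) Cells in 96-well plates. 2) Compound, 48 h, 5 concentrations. 3) Linear interpolation between surrounding doses. 4) Unreached endpoint = highest concentration. The concentration for 50% growth inhibition is given as GI50. TGI is the concentration that stops growth completely.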

As for `O=c1cccccc1NCCCCCCCCCNc1cccccc1=O`, the TGI stood at 43.4 µM in experiment [1]; 21.3 µM in experiment [2]; 27.7 µM in experiment [3]; 39.9 µM in experiment [4]; 78.7 µM in experiment [5]; 19.1 µM in experiment [6]. Moreover, the TGI is 74.6 µM in experiment [7], above 100 µM in experiment [8] and 45.7 µM in experiment [9].
Regarding `O=C1C(=O)N(C2C3CC4CC(C3)CC2C4)C(=O)C(=O)C1c1nc2ccccc2o1` (configuration not stated), the TGI in experiment [1], in [2], in experiment [3], in experiment [4], in experiment [5] and in experiment [6] was above 100 µM in each case. Moreover, the TGI in [7] and in [9] was above 100 µM throughout.
With `N#Cc1ccccc1NC(=O)c1ccccc1`, the TGI in experiment [2], in experiment [3], in experiment [4], in [10], in experiment [6] and in experiment [7] was above 100 µM throughout. The molecule also showed a TGI in experiment [9] above 100 µM.
For `CCOc1ccc(NC(=O)CC2SC(N)=NC2=O)cc1` (configuration not stated), the TGI in experiment [1], in experiment [3], in experiment [4], in experiment [5], in [6] and in experiment [7] was above 100 µM in each case. Further, the TGI in experiment [8] and in [9] was above 100 µM in each case.
For the molecule `FC(F)(F)c1ccc2nc(Nc3ccc(Cl)c(Cl)c3)c(-c3ccccc3)nc2c1`, the TGI in [1], in experiment [2], in [3], in experiment [4], in [5] and in experiment [6] was above 100 µM throughout. Moreover, the TGI in [7], in experiment [8] and in experiment [9] was above 100 µM in each case.
For the molecule `O=c1[nH]cc(OCC(F)(F)F)c(=O)[nH]1`, the TGI in [2], in experiment [3], in experiment [4], in experiment [10], in experiment [5] and in [6] was above 100 µM in each case. Besides, the TGI in experiment [7], in experiment [8] and in experiment [9] was above 100 µM in each case.
As for `COc1cc(Oc2c(O)c(C)c(OC)c(C(C)=O)c2O)c(C(C)=O)c(O)c1C`, the TGI in [1], in experiment [2], in experiment [3], in experiment [4], in experiment [5] and in experiment [6] was above 100 µM each time. Further, the TGI in experiment [7] was 94.9 µM; in experiment [8] it was above 100 µM; in experiment [9], above 100 µM.
Take `CC1CC2(CC[C@@H]1O)OCCO2` (some centres not stated): the TGI in [2], in experiment [3], in [4], in experiment [10], in experiment [5] and in experiment [6] was above 100 µM each time. Besides, the TGI in experiment [7] and in [8] was above 100 µM in each case.
As to `O=C1c2ccccc2C(=O)C1C(c1ccc([N+](=O)[O-])cc1)C1C(=O)c2ccccc2C1=O`, the TGI was above 100 µM in experiment [1]; above 100 µM in experiment [2]; above 100 µM in experiment [3]; above 100 µM in [4]; above 100 µM in experiment [5]; 32.5 µM in experiment [6]. Further, the TGI was above 100 µM in [7], above 100 µM in experiment [8] and 73.6 µM in [9].
In the case of `COc1ccc(-c2ccc(/C=N/n3c(COc4ccc(Cl)cc4)n[nH]c3=S)o2)c([N+](=O)[O-])c1`, the GI50 in [1] was 13.5 µM; in experiment [2], 18.6 µM; in experiment [3], 13 µM; in experiment [4], 14.1 µM; in [5], 16.5 µM; in [7], 13.8 µM. Further, the GI50 in [8] is 17.5 µM; in experiment [9] it was 16.6 µM. Moreover, the TGI amounted to 57.8 µM in experiment [1]; 42.2 µM in experiment [2]; 32.8 µM in experiment [3]; 37 µM in [4]; 31.2 µM in experiment [5]; 33.7 µM in experiment [7]. In addition, the TGI came to 52 µM in [8] and 42.6 µM in experiment [9].
`CC(=O)C1=C([O-])C(C)OC1=O.CC(=O)C1=C([O-])C(C)OC1=O.[NH-]C1CCCC[C@H]1[NH-].[Pt+4]` (configuration not stated): the GI50 is 30.5 µM in experiment [3]; 48 µM in experiment [4]; 15.8 µM in experiment [10]; above 100 µM in experiment [5]; 96.6 µM in experiment [6]; 47.5 µM in experiment [7]. Also, the GI50 in experiment [9] is above 100 µM. The TGI in experiment [3], in experiment [4], in [10], in experiment [5], in [6] and in [7] was above 100 µM in each case. Moreover, the TGI in experiment [9] is above 100 µM.
Consider `CCOC(=O)c1c(C)n(Cc2ccc(Cl)cc2Cl)c2c1cc1oc(=O)c(=O)n3c(Cc4ccccc4)nc2c13`, for which the GI50 in experiment [1] was 10.7 µM; in experiment [2] it was 8.44 µM; in experiment [3], 2.68 µM; in experiment [4], 5.3 µM; in experiment [5], 2.25 µM; in experiment [6], 1.83 µM. Besides, the GI50 in experiment [7] is 2.8 µM; in [8], 1.31 µM; in experiment [9], 2.31 µM. The TGI in experiment [1] amounted to 25 µM; in experiment [2], 20.7 µM; in experiment [3], 7.06 µM; in experiment [4], 12.9 µM; in experiment [5], 5.04 µM; in experiment [6], 3.38 µM. Also, the TGI in [7] was 7.3 µM; in experiment [8], 3.19 µM; in experiment [9], 5.84 µM.
With `CC1=NN(C(=O)c2ccc(Cl)cc2)C(=O)/C1=C/c1cccc([N+](=O)[O-])c1`, the TGI in experiment [2], in experiment [3], in [4], in experiment [10], in experiment [5] and in [6] was above 100 µM each time. Further, the TGI in experiment [7], in experiment [8] and in experiment [9] was above 100 µM in each case.
As for `S=c1ssc(Sc2ccccn2)c1Cl`, the GI50 in experiment [1] was 23 µM; in experiment [2] it was 16 µM; in experiment [3], 15.2 µM; in [5], 3.97 µM; in experiment [6], 5.09 µM; in experiment [7] it was 17.2 µM. Further, the GI50 in experiment [9] was 13.5 µM. In addition, the TGI came to 58.8 µM in [1]; 32.1 µM in experiment [2]; 28.5 µM in experiment [3]; 15.1 µM in [5]; 17 µM in [6]; 62.9 µM in experiment [7]. Also, the TGI in [9] is 26.4 µM.
As for `C/C1=C\CC[C@@](C)(O)[C@@H]2CC3[C@@H](OC(=O)C34CC4)[C@@H](O2)[C@H](C)CCC1` (some centres not stated), the GI50 in experiment [3] is 12 µM; in [4] it was 13.5 µM; in experiment [5], 14.7 µM; in experiment [6], 6.09 µM; in experiment [8], 3.95 µM; in [9], 19.4 µM. In addition, the TGI in experiment [3] was 24.7 µM; in experiment [4], 39.3 µM; in [5], 27.8 µM; in experiment [6], 25.8 µM; in experiment [8] it was above 100 µM; in experiment [9], 73.3 µM.
Regarding `Cc1cn2c(/C=N/N/C(N)=N\N)c(-c3ccc(Cl)c([N+](=O)[O-])c3)nc2s1`, the GI50 in experiment [2] was 0.993 µM; in [10], 7.58 µM; in experiment [7], 4.18 µM; in experiment [9] it was 1.03 µM. Besides, the TGI in experiment [2] was 1.83 µM; in experiment [10], 21.5 µM; in experiment [7], 20 µM; in experiment [9], 2.37 µM.
As for `COC1CC(n2cnc3c(N)ncnc32)OC1CO` (configuration not stated), the TGI in [1], in experiment [2], in experiment [3], in experiment [4], in experiment [5] and in experiment [7] was above 100 µM throughout. The TGI in experiment [8] and in experiment [9] was above 100 µM in each case.
For `CN(C)c1ccc(C(N)=O)cn1`, the TGI in experiment [2], in experiment [3], in [4], in experiment [5], in [6] and in experiment [7] was above 100 µM in each case. Moreover, the TGI in experiment [8] and in experiment [9] was above 100 µM in each case.
For the molecule `CCOC(=O)/C(C#N)=C1\N[C@H](C(=O)OCC)CO1`, the TGI in experiment [1], in [2], in [3], in [4], in experiment [5] and in experiment [6] was above 100 µM each time. Further, the TGI in [7], in experiment [8] and in [9] was above 100 µM in each case.
